Patent US20260232767A1, “INTERLEUKIN-23 RECEPTOR ANTAGONIST PEPTIDES FOR USE IN THE TREATMENT OF PSORIASIS” (Janssen Pharmaceutica NV, priority 2023, published 2026)

System: subjects with moderate-to-severe plaque psoriasis
Assay: PSSD symptom and sign scores, Example 2
Format: in vivo, human
Conditions: for Change from Baseline in PSSD Symptom Score at Week 52, LSMean: MMRM model; for Subjects Achieving PSSD Sign Score 0 at Week 52: Subjects w/Baseline PSSD Sign Score ≥1 (Table 26, second block); for Subjects achieving PSSD Sign Score = 0 at Week 52: subjects with Baseline PSSD Sign Score ≥1; for Subjects achieving PSSD Symptom Score = 0 at Week 52: subjects with Baseline PSSD Symptom Score ≥1; for Change from Baseline in PSSD Sign Score, LSMean / Change from Baseline in PSSD Symptom Score, LSMean: MMRM
[1] = Placebo → 100 mg QD, crossed over at or after Week 16

Structure (SMILES): CC(=O)NCCCC[C@@H]1NC(=O)[C@H](Cc2c[nH]c3c(C)cccc23)NC(=O)[C@H]([C@@H](C)O)NC(=O)[C@H](CC(N)=O)NC(=O)[C@@H](NC(C)=O)C(C)(C)SSC(C)(C)[C@@H](C(=O)N[C@@H](Cc2ccc(OCCN)cc2)C(=O)N[C@@H](Cc2ccc3ccccc3c2)C(=O)NC2(C(=O)N[C@@H](CCC(=O)O)C(=O)N[C@@H](CC(N)=O)C(=O)N[C@@H](Cc3cccnc3)C(=O)N(C)CC(N)=O)CCOCC2)NC1=O [IL-23 receptor antagonist peptide, Ac-[Pen]*-N-T-[W(7-Me)]-[Lys(Ac)]-[Pen]*-Phe[4-(2-aminoethoxy)]-[2-Nal]-[THP]-E-N-[3-Pal]-Sarc-NH2 (*[Pen]-[Pen]* formdisulfidebond)]
- Change from Baseline in PSSD Sign Score at Week 52, Median (25 mg BID): −38.5
- Change from Baseline in PSSD Symptom Score at Week 52, Median (25 mg BID): −27.0
- Change from Baseline in PSSD Symptom Score at Week 52, LSMean (25 mg BID): −31.4
- Subjects Achieving PSSD Sign Score 0 at Week 52 (25 mg BID): 5 (12.2%)
- Subjects achieving PSSD Sign Score = 0 at Week 52 (25 mg BID): 5 (12.2%)
- Subjects achieving PSSD Symptom Score = 0 at Week 52 (25 mg BID): 7 (17.1%)
- Change from Baseline in PSSD Sign Score at Week 52, Median (25 mg QD): −32.5
- Change from Baseline in PSSD Symptom Score at Week 52, Median (25 mg QD): −35.0
- Change from Baseline in PSSD Symptom Score at Week 52, LSMean (25 mg QD): −22.3
- Subjects Achieving PSSD Sign Score 0 at Week 52 (25 mg QD): 7 (16.3%)
- Subjects achieving PSSD Sign Score = 0 at Week 52 (25 mg QD): 7 (16.3%)
- Subjects achieving PSSD Symptom Score = 0 at Week 52 (25 mg QD): 8 (18.6%)
- Change from Baseline in PSSD Sign Score at Week 52, Median (50 mg QD): −45.0
- Change from Baseline in PSSD Symptom Score at Week 52, Median (50 mg QD): −34.0
- Change from Baseline in PSSD Symptom Score at Week 52, LSMean (50 mg QD): −33.0
- Subjects achieving PSSD Sign Score = 0 at Week 52 (50 mg QD): 5 (11.6%)
- Subjects achieving PSSD Symptom Score = 0 at Week 52 (50 mg QD): 9 (21.4%)
- Change from Baseline in PSSD Sign Score at Week 52, Median (100 mg BID): −55.0
- Change from Baseline in PSSD Symptom Score at Week 52, Median (100 mg BID): −53.0
- Change from Baseline in PSSD Symptom Score at Week 52, LSMean (100 mg BID): −44.0
- Subjects Achieving PSSD Sign Score 0 at Week 52 (100 mg BID): 7 (16.7%)
- Subjects achieving PSSD Sign Score = 0 at Week 52 (100 mg BID): 7 (16.7%)
- Change from Baseline in PSSD Sign Score at Week 52, Median (100 mg QD): −43.0
- Change from Baseline in PSSD Symptom Score at Week 52, Median (100 mg QD): −28.0
- Change from Baseline in PSSD Symptom Score at Week 52, LSMean (100 mg QD): −36.5
- Subjects Achieving PSSD Sign Score 0 at Week 52 (100 mg QD): 6 (14.0%)
- Change from Baseline in PSSD Sign Score at Week 52, Median [1]: −48.5
- Change from Baseline in PSSD Symptom Score at Week 52, Median [1]: −30.0
- Change from Baseline in PSSD Symptom Score at Week 52, LSMean [1]: −32.4
- Subjects achieving PSSD Sign Score = 0 at Week 52 [1]: (22.9%)
- Subjects achieving PSSD Symptom Score = 0 at Week 52 [1]: (34.3%)
- Change from Baseline in PSSD Sign Score, Mean (Week 1, 25 mg BID): −11.3
- Change from Baseline in PSSD Sign Score, Median (Week 1, 25 mg BID): −11.0
- Change from Baseline in PSSD Symptom Score, Mean (Week 1, 25 mg BID): −7.6
- Change from Baseline in PSSD Symptom Score, Median (Week 1, 25 mg BID): −8.0
- Change from Baseline in PSSD Sign Score, LSMean (Week 1, 25 mg BID): −11.4
- Change from Baseline in PSSD Symptom Score, LSMean (Week 1, 25 mg BID): −7.8
- Change from Baseline in PSSD Sign Score, Mean (Week 1, 25 mg QD): −11.9
- Change from Baseline in PSSD Sign Score, Median (Week 1, 25 mg QD): −10.5
- Change from Baseline in PSSD Symptom Score, Mean (Week 1, 25 mg QD): −12.9
- Change from Baseline in PSSD Symptom Score, Median (Week 1, 25 mg QD): −12.0
- Change from Baseline in PSSD Sign Score, LSMean (Week 1, 25 mg QD): −10.9
- Change from Baseline in PSSD Symptom Score, LSMean (Week 1, 25 mg QD): −11.1
- Change from Baseline in PSSD Sign Score, Mean (Week 1, 50 mg QD): −13.3
- Change from Baseline in PSSD Sign Score, Median (Week 1, 50 mg QD): −11.0
- Change from Baseline in PSSD Symptom Score, Mean (Week 1, 50 mg QD): −9.6
- Change from Baseline in PSSD Symptom Score, Median (Week 1, 50 mg QD): −12.0
- Change from Baseline in PSSD Sign Score, LSMean (Week 1, 50 mg QD): −13.3
- Change from Baseline in PSSD Symptom Score, LSMean (Week 1, 50 mg QD): −9.1
- Change from Baseline in PSSD Sign Score, Mean (Week 1, 100 mg BID): −15.9
- Change from Baseline in PSSD Sign Score, Median (Week 1, 100 mg BID): −16.0
- Change from Baseline in PSSD Symptom Score, Mean (Week 1, 100 mg BID): −12.5
- Change from Baseline in PSSD Symptom Score, Median (Week 1, 100 mg BID): −8.0
- Subjects Achieving PSSD Symptom Score 0 (%) (Week 1, 100 mg BID, Baseline Symptom Score ≥1, N=42): (2.4%)
- Change from Baseline in PSSD Sign Score, LSMean (Week 1, 100 mg BID): −15.6
- Change from Baseline in PSSD Symptom Score, LSMean (Week 1, 100 mg BID): −11.5
- Change from Baseline in PSSD Sign Score, Mean (Week 1, 100 mg QD): −12.0
- Change from Baseline in PSSD Sign Score, Median (Week 1, 100 mg QD): −9.0
- Change from Baseline in PSSD Symptom Score, Mean (Week 1, 100 mg QD): −6.2
- Change from Baseline in PSSD Symptom Score, Median (Week 1, 100 mg QD): −7.0
- Change from Baseline in PSSD Sign Score, LSMean (Week 1, 100 mg QD): −12.4
- Change from Baseline in PSSD Symptom Score, LSMean (Week 1, 100 mg QD): −8.4
- Change from Baseline in PSSD Sign Score, Mean (Week 2, 25 mg BID): −20.3
- Change from Baseline in PSSD Sign Score, Median (Week 2, 25 mg BID): −15.0
- Change from Baseline in PSSD Symptom Score, Mean (Week 2, 25 mg BID): −16.0
- Change from Baseline in PSSD Symptom Score, Median (Week 2, 25 mg BID): −12.0
- Change from Baseline in PSSD Sign Score, LSMean (Week 2, 25 mg BID): −20.7
- Change from Baseline in PSSD Symptom Score, LSMean (Week 2, 25 mg BID): −16.2
- Change from Baseline in PSSD Sign Score, Mean (Week 2, 25 mg QD): −17.6
- Change from Baseline in PSSD Sign Score, Median (Week 2, 25 mg QD): −17.5
- Change from Baseline in PSSD Symptom Score, Mean (Week 2, 25 mg QD): −18.1
- Change from Baseline in PSSD Symptom Score, Median (Week 2, 25 mg QD): −17.0
- Change from Baseline in PSSD Sign Score, LSMean (Week 2, 25 mg QD): −15.7
- Change from Baseline in PSSD Symptom Score, LSMean (Week 2, 25 mg QD): −15.8
- Change from Baseline in PSSD Sign Score, Mean (Week 2, 50 mg QD): −22.7
- Change from Baseline in PSSD Sign Score, Median (Week 2, 50 mg QD): −22.0
- Change from Baseline in PSSD Symptom Score, Mean (Week 2, 50 mg QD): −17.3
- Change from Baseline in PSSD Symptom Score, Median (Week 2, 50 mg QD): −16.0
- Subjects Achieving PSSD Symptom Score 0 (%) (Week 2, 50 mg QD, Baseline Symptom Score ≥1, N=42): (2.4%)
- Change from Baseline in PSSD Sign Score, LSMean (Week 2, 50 mg QD): −23.1
- Change from Baseline in PSSD Symptom Score, LSMean (Week 2, 50 mg QD): −17.2
- Change from Baseline in PSSD Sign Score, Mean (Week 2, 100 mg BID): −24.7
- Change from Baseline in PSSD Sign Score, Median (Week 2, 100 mg BID): −28.0
- Change from Baseline in PSSD Symptom Score, Mean (Week 2, 100 mg BID): −18.4
- Change from Baseline in PSSD Symptom Score, Median (Week 2, 100 mg BID): −14.0
- Change from Baseline in PSSD Sign Score, LSMean (Week 2, 100 mg BID): −24.3
- Change from Baseline in PSSD Symptom Score, LSMean (Week 2, 100 mg BID): −17.1
- Change from Baseline in PSSD Sign Score, Mean (Week 2, 100 mg QD): −22.6
- Change from Baseline in PSSD Sign Score, Median (Week 2, 100 mg QD): −20.0
- Change from Baseline in PSSD Symptom Score, Mean (Week 2, 100 mg QD): −15.2
- Change from Baseline in PSSD Symptom Score, Median (Week 2, 100 mg QD): −14.0
- Change from Baseline in PSSD Sign Score, LSMean (Week 2, 100 mg QD): −24.3
- Change from Baseline in PSSD Symptom Score, LSMean (Week 2, 100 mg QD): −18.4
- Change from Baseline in PSSD Sign Score, Mean (Week 4, 25 mg BID): −26.9
- Change from Baseline in PSSD Sign Score, Median (Week 4, 25 mg BID): −25.0
- Change from Baseline in PSSD Symptom Score, Mean (Week 4, 25 mg BID): −22.8
- Change from Baseline in PSSD Symptom Score, Median (Week 4, 25 mg BID): −20.0
- Subjects Achieving PSSD Symptom Score 0 (%) (Week 4, 25 mg BID, Baseline Symptom Score ≥1, N=41): (4.9%)
- Change from Baseline in PSSD Sign Score, LSMean (Week 4, 25 mg BID): −27.5
- Change from Baseline in PSSD Symptom Score, LSMean (Week 4, 25 mg BID): −23.1
- Change from Baseline in PSSD Sign Score, Mean (Week 4, 25 mg QD): −24.5
- Change from Baseline in PSSD Sign Score, Median (Week 4, 25 mg QD): −29.5
- Change from Baseline in PSSD Symptom Score, Mean (Week 4, 25 mg QD): −23.6
- Change from Baseline in PSSD Symptom Score, Median (Week 4, 25 mg QD): −23.0
- Subjects Achieving PSSD Symptom Score 0 (%) (Week 4, 25 mg QD, Baseline Symptom Score ≥1, N=43): (2.3%)
- Change from Baseline in PSSD Sign Score, LSMean (Week 4, 25 mg QD): −21.7
- Change from Baseline in PSSD Symptom Score, LSMean (Week 4, 25 mg QD): −19.9
- Change from Baseline in PSSD Sign Score, Mean (Week 4, 50 mg QD): −27.4
- Change from Baseline in PSSD Sign Score, Median (Week 4, 50 mg QD): −29.0
